Measurements as given in patent publication US12458025B2 (priority 2020, dated 2025).
Where two headings read alike, the source gives them in different places.

Columns and labels:
[1] = test system: Clavibacter michiganensis (Gram positive); assay: Bacterial culture growth inhibition, cell density (OD: 600); assay type: cell-based; conditions: for cell density (OD: 600): untreated 1.61
[2] = test system: Agrobacterium tumefaciens (Gram negative); assay: as above; assay type: cell-based; conditions: for cell density (OD: 600) / growth inhibition significance vs untreated (asterisks): 24 h; for cell density (OD: 600): untreated 1.12; for growth inhibition significance vs untreated (asterisks): N=4
[3] = test system: Pseudomonas syringae (Gram negative); assay: as above; assay type: cell-based; conditions: 24 h; for growth inhibition significance vs untreated (asterisks): N=4; for cell density (OD: 600): untreated 1.82
Protocol: These compounds were also tested against other phytobacteria. The respective bacterial cultures were grown in the presence of multiple concentrations of a compound (μM) for 24 h, followed by cell density measurements (OD: 600). […]

[4] = test system: Candidatus Liberibacter asiaticus (CLas); assay type: cell-based; conditions: 25 μM, 72 h; tetracycline 500 ppm
[5] = test system: Candidatus Liberibacter solanacearum (CLso); assay type: cell-based; conditions: re-test, five biological replicates, 72 h; tetracycline 250 ppm
[6] = test system: Candidatus Liberibacter solanacearum (CLso); assay type: in vivo, potato (Solanum tuberosum L. var. Atlantic); conditions: foliar spray 10 and 25 μM twice a week, 28 dpi; for CLso titers by qPCR: vs untreated controls; for disease symptoms (chlorosis, necrosis, leaf curling and wilting): vs untreated plants
[7] = cited from earlier work
[8] = test system: bacteria, fungi, and the superbug MRSA; conditions: agar patch studies; cited from earlier work

Compound	cell density (OD: 600) ([1]; 5 μM, 24 h)	cell density (OD: 600) ([1]; 10 μM, 24 h)	cell density (OD: 600) ([1]; 20 μM, 24 h)	cell density (OD: 600) ([1]; 50 μM, 24 h)	effective against Agrobacterium tumefaciens [2]	cell density (OD: 600) ([2]; 5 μM)	cell density (OD: 600) ([2]; 10 μM)	cell density (OD: 600) ([2]; 20 μM)	cell density (OD: 600) ([2]; 50 μM)	growth inhibition significance vs untreated (asterisks) ([3]; 5 μM)	cell density (OD: 600) ([3]; 5 μM)	growth inhibition significance vs untreated (asterisks) ([3]; 10 μM)	cell density (OD: 600) ([3]; 10 μM)	growth inhibition significance vs untreated (asterisks) ([3]; 20 μM)	cell density (OD: 600) ([3]; 20 μM)	growth inhibition significance vs untreated (asterisks) ([3]; 50 μM)	cell density (OD: 600) ([3]; 50 μM)	inhibition of CLas (FIG. 1c) [4]	inhibition of CLso (FIG. 1b) [5]	CLso titers by qPCR [6]	further results
CCCNC(=O)NS(=O)(=O)c1ccc(Cl)cc1 [Chlorpropamide]	1.67	1.65	1.63	1.56	effective	1.14	1.14	1.17	1.16	** (highly effective, **P≤0.001)	1.77	* (effective, *P≤0.05)	1.78	** (highly effective, **P≤0.001)	1.76	* (effective, *P≤0.05)	1.77				effective against Clavibacter michiganensis [1]: effective
CCn1nc(C(=O)O)c(=O)c2cc3c(cc21)OCO3 [Cinoxacin, 1-ethyl-1,4-dihydro-4-oxo-[1,3] dioxolo [4,5-g] cinnoline-3-carboxylic acid]	1.63	1.64	1.59	1.57	effective	1.17	1.11	1.13	0.94	* (effective, *P≤0.05)	1.77	* (effective, *P≤0.05)	1.76	** (highly effective, **P≤0.001)	1.72	** (highly effective, **P≤0.001)	1.76				growth inhibition significance vs untreated (asterisks) ([2]; 50 μM): * (effective, *P≤0.05)
CN(C)CCOC(c1ccc(Cl)cc1)c1ccccn1.O=C(O)/C=C\C(=O)O (stereo not drawn) [Carbinoxamine maleate]	1.68	1.63	1.58	1.59		1.10	1.08	1.14	1.20		1.81		1.81		1.81	* (effective, *P≤0.05)	1.77				
CN(C)CCOC(=O)C(c1ccccc1)C1(O)CCCC1.Cl (stereo not drawn) [Cyclopentolate hydrochloride]	1.64	1.60	1.59	1.62		1.08	1.11	1.11	1.12	* (effective, *P≤0.05)	1.78		1.79	* (effective, *P≤0.05)	1.77	** (highly effective, **P≤0.001)	1.73	inhibited	inhibited	lowered CLso titers	disease symptoms (chlorosis, necrosis, leaf curling and wilting) [6]: clearly lower level of disease symptoms
Cl.NCCCCCC(=O)O [Aminocaproic acid hydrochloride, 6-aminohexanoic acid]	1.64	1.64	1.66	1.59		1.17	1.16	1.10	1.11		1.80		1.81		1.80	* (effective, *P≤0.05)	1.78				solubility ([7]; in chloroform): practically insoluble; solubility ([7]; in methanol): sparingly soluble; solubility ([7]; in water, acid, and alkaline solutions): soluble
COc1ccc(C2COc3c(ccc(O)c3OC)C2)c(OC)c1O (single isomer, unassigned; (-)) [Duartin (−), (−)-duartin]	1.66	1.61	1.65	1.62		1.10	1.11	1.10	1.09	** (highly effective, **P≤0.001)	1.77	** (highly effective, **P≤0.001)	1.78		1.79	** (highly effective, **P≤0.001)	1.76	inhibited	inhibited	lowered CLso titers	disease symptoms (chlorosis, necrosis, leaf curling and wilting) [6]: clearly lower level of disease symptoms
Cc1cc(O)cc(C)c1Cl [Chloroxylenol, 4-chloro-3,5-dimethylphenol]	1.59	1.56	1.52	1.38	effective	1.12	1.06	0.99	0.92		1.82		1.81	** (highly effective, **P≤0.001)	1.76	** (highly effective, **P≤0.001)	1.30	inhibited	inhibited	lowered CLso titers	effective against Clavibacter michiganensis [1]: effective; growth inhibition significance vs untreated (asterisks) ([1]; 50 μM, 24 h, N=4): ** (highly effective, **P≤0.001); growth inhibition significance vs untreated (asterisks) ([2]; 50 μM): * (effective, *P≤0.05); time to kill a wide variety of microbes [8]: ≤ 15 s; disease symptoms (chlorosis, necrosis, leaf curling and wilting) [6]: clearly lower level of disease symptoms
